Data set [1] has as its target Rat recombinant PDE10a (rPDE10a) (Rattus norvegicus (Rat), UniProt Q9QYJ6). Nature of the data set: In vitro assay PDE10a: rat recombinant PDE10a SPA with 3H-cAMP substrate, IC50. In kind it is biochemical. Particulars: 60 nM cAMP, read-out: rPDE10a2 IC50. The essentials: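 Enzyme expressed in Sf9 cells via baculovirus and Ni-sepharose purified; reaction with 3H-cAMP ran 60 min at rt, stopped with PDE SPA beads. Compounds diluted in DMSO at 100-fold final concentration; blanks omitted enzyme.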

For data set [2], the target named is Human recombinant PDE10A2 (Homo sapiens (Human), UniProt Q9Y233). Description: In vitro hPDE10a: human recombinant PDE10A2 scintillation proximity assay, IC50. In kind it is biochemical. Particulars: human recombinant PDE10A2, SPA, 60 nM cAMP; read-out: hPDE10a2 IC50. The essentials:
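Purified recombinant human PDE10A2 (Ni-sepharose) was assayed by SPA, counting [3H]-AMP product captured on yttrium silicate beads added in zinc sulphate stop solution. Inhibition was expressed as % of activity without compound, with a no-enzyme low control. Repeat data points were aggregated.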
On the technique in general: In a scintillation proximity assay essentially only radioactivity close to the scintillant gives light.

The nature of data set [3]: PDE10a perfused brain permeability study: plasma concentrations at 30 and 120 min, brain concentration at 120 min, brain/plasma ratio. Particulars: for concentration at 2 h / Kp at 2 h: male, Sprague-Dawley, rat; for Kp at 2 h: brain/plasma.
Procedure: PDE10a-Brain Permeability Assay
A. PDE10a-Perfused Brain Permeability Study Protocol
Drug administration by oral gavage, subcutaneous injection or intravenous was carried out using male Sprague Dawley rats under IACUC protocol (SH-MET3010). Male Sprague Dawley rats (Charles River) ˜300-350 g were maintained on a 4% standard rodent diet (Test Diet 5001). They are allowed ad libitum access to water and food. Room temperature was maintained at 64° F. and humidity at 30-70%.
Three animals per compound were provided a dose of 2 mg/mL in 20% HpbCD/Tris pH 8 by tail i.v. or 30 mpk p.o. or s.c. in 20% HpbCD/Tris pH 8, with PDE10a antagonists. A first blood sample was collected at 30 min via retro-orbital sinus (anesthetic by 70% CO2/30% O2) into heparinzed plasma separator tubes. The blood was centrifuged and 100 μL plasma was placed into a 96 well plate and saved on dry ice.
After the 120 min, the final blood sample was collected via retro-orbital sinus under anesthesia by IP 0.5 cc injection of a 4/1 mixture of Ketaset: AnaSed [(prepared 10 mL Ketaset (100 mg/mL Ketamine)+2.5 mL AnaSed (20 mg/mL Xylazine)]. The rats were then perfused with 400 mL heparinized saline (10,000 units/L) through the left ventricle of the heart; the brains were then removed (not including the medulla), weighed and homogenized in PBS (4 mL/g tissue). The samples were stored at −80° C. and submitted for chemical analysis of blood and brain concentrations. Endpoints of sample analysis consists of the plasma concentrations at 30 and 120 min, plus brain concentrations at 120 min.
[4] abbreviates: male Sprague Dawley rats, 2 h, perfused or non-perfused brain.

Structures can show the parent of a compound that is named as a salt. Bounds are passed on as bounds.

Sequence of Rat recombinant PDE10a (rPDE10a) (Q9QYJ6 whole entry): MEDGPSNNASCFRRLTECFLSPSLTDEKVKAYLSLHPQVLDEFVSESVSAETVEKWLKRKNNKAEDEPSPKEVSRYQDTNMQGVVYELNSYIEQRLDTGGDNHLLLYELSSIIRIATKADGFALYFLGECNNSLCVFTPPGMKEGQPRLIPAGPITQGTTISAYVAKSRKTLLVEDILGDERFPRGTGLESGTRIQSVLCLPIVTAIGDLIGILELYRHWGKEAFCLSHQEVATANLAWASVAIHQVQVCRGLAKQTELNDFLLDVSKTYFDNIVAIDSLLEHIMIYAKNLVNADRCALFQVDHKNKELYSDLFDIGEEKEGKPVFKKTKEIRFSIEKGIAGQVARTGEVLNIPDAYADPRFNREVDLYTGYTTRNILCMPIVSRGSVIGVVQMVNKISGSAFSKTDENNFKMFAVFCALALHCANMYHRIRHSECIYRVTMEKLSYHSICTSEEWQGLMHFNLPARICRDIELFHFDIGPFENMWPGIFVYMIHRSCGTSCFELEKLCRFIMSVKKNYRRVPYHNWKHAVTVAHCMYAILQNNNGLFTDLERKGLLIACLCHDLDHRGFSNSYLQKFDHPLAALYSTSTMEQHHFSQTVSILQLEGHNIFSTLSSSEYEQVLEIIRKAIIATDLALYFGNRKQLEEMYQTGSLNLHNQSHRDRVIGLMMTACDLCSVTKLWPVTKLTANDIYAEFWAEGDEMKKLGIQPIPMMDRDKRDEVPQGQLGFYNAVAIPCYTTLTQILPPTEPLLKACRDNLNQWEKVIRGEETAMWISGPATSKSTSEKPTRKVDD
Sequence of Human recombinant PDE10A2 (Q9Y233 267-1055): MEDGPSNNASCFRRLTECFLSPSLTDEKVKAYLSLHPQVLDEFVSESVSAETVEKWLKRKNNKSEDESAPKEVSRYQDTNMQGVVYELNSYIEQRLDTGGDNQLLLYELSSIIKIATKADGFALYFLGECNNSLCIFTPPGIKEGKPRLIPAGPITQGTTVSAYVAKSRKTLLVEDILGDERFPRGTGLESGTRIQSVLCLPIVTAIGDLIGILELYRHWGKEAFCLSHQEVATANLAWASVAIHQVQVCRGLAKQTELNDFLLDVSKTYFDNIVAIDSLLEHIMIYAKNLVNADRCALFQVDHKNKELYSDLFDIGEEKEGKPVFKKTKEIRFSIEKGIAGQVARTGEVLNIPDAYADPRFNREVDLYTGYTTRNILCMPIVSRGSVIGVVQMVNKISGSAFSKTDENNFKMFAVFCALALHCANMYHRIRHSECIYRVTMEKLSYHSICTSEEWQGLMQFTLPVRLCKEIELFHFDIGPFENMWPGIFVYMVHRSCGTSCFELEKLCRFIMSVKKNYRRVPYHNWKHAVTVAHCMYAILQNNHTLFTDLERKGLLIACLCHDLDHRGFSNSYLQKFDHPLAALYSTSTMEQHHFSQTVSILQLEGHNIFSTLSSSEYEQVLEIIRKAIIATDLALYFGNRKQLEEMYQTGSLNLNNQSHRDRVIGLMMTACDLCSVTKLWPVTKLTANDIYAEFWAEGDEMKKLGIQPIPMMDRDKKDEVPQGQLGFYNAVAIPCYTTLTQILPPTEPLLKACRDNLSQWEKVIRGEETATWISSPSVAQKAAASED

As to `O=C(O)CCNC(=O)c1ccc(-c2c(/C=C/c3ccc4ccccc4n3)nc3c(N4CCOCC4)ccnn23)cc1` [compound 44, (E)-3-(4-(8-Morpholino-2-(2-(quinolin-2-yl)vinyl)imidazo[1,2-b]pyridazin-3-yl)benzamido)propanoic acid], the half-inhibitory concentration (IC50) is 1 nM in data set [1] and 4 nM in data set [2]. Besides, the concentration at 2 h in data set [3] (brain) was determined as 0 ng/g; in data set [3] (plasma), 83 ng/mL. Also, the Kp at 2 h in data set [3] amounted to 0.

On to `O=C(O)C1CCN(c2ccc(-c3c(/C=C/c4ccc5ccccc5n4)nc4c(N5CCOCC5)ccnn34)cc2)CC1` [Cpd 100, (E)-1-(4-(8-Morpholino-2-(2-(quinolin-2-yl)vinyl)imidazo[1,2-b]pyridazin-3-yl)phenyl)piperidine-4-carboxylic acid trifluoroacetic acid salt], for which the IC50 in data set [1] came to 6 nM; in data set [2] it was 3 nM. In addition, the results for the concentration at 2 h in data set [3] (brain) and in data set [3] (plasma) were 60.7 ng/g and 2840 ng/mL, respectively. Further, the Kp at 2 h in data set [3] was found to be 0.02.

`CS(=O)(=O)NC(=O)c1ccc(-c2c(CCc3ccc4ccccc4n3)nc3c(N4CCOCC4)ccnn23)cc1` [compound 43, N-(Methylsulfonyl)-4-(8-morpholino-2-(2-(quinolin-2-yl)ethyl)imidazo[1,2-b]pyridazin-3-yl)benzamide]: the IC50 in data set [1] turned out to be 1 nM; in data set [2] it was 2 nM. For the same compound, the concentration at 2 h came out at 0 ng/g in data set [3] (brain) and 1.8 ng/mL in data set [3] (plasma). Also, the Kp at 2 h in data set [3] was 0.

As to `O=C(O)c1ccc(-c2c(CCc3ccc4ccccc4n3)nc3c(N4CCOCC4)ccnn23)cc1` [compound 41, 4-(8-Morpholino-2-(2-(quinolin-2-yl)ethyl)imidazo[1,2-b]pyridazin-3-yl)benzoic acid], the half-inhibitory concentration (IC50) in data set [1] and in data set [2] was 1 nM each time. Also, the concentration at 2 h worked out at 0 ng/g in data set [3] (brain) and 38 ng/mL in data set [3] (plasma). For the same compound, the Kp at 2 h in data set [3] was found to be 0.

In the case of `O=C(O)C1CCN(c2ccc(-c3c([C@H]4C[C@H](c5ccc6ccccc6n5)C4)nc4c(N5CCOCC5)ccnn34)cc2)CC1` [compound 168, 1-(4-(8-Morpholino-2-((1r,3r)-3-(quinolin-2-yl)cyclobutyl)imidazo[1,2-b]pyridazin-3-yl)phenyl)piperidine-4-carboxylic acid], the IC50 in data set [2] worked out at 2 nM. Besides, the concentration at 2 h amounted to 30.1 ng/g in data set [3] (brain) and 1200 ng/mL in data set [3] (plasma). Besides, in data set [3], the Kp at 2 h is 0.02.

For the compound `CS(=O)(=O)NC(=O)c1ccc(-c2c(C#Cc3ccc4ccccc4n3)nc3c(N4CCOCC4)ccnn23)cn1` [Cpd 28, N-(Methylsulfonyl)-5-(8-morpholino-2-(quinolin-2-ylethynyl)imidazo[1,2-b]pyridazin-3-yl)picolinamide], the half-maximal inhibitory concentration (IC50) in data set [1] and in data set [2] was 1 nM throughout. Further, the concentration at 2 h in data set [3] (brain) stood at 0.95 ng/g; in data set [3] (plasma) it was 136 ng/mL. For the same compound, the Kp at 2 h in data set [3] came out at 0.01.

As for `Cn1nc(-c2ccc(-c3c(/C=C/c4ccc5ccccc5n4)nc4c(N5CCOCC5)ccnn34)cc2)nc1O` [Cpd 74, (E)-2-Methyl-5-(4-(8-morpholino-2-(2-(quinolin-2-yl)vinyl)imidazo[1,2-b]pyridazin-3-yl)phenyl)-2H-1,2,4-triazol-3-ol], the 50% inhibitory concentration (IC50) in data set [1] and in data set [2] was 13 nM each time. For the same compound, the concentration at 2 h came to 34.7 ng/g in data set [3] (brain) and 857 ng/mL in data set [3] (plasma). For the same compound, the concentration ratio (Kp) at 2 h in data set [3] was determined as 0.04.

As to `O=C(O)CNc1ccc(-c2c(/C=C/c3ccc4ccccc4n3)nc3c(N4CCOCC4)ccnn23)cn1` [Cpd 17, (E)-2-(5-(8-Morpholino-2-(2-(quinolin-2-yl)vinyl)imidazo[1,2-b]pyridazin-3-yl)pyridin-2-ylamino)acetic acid], the IC50 is 2 nM in data set [1] and 3 nM in data set [2]. Moreover, the values for the concentration at 2 h in data set [3] (brain) and in data set [3] (plasma) were 0 ng/g and 15.7 ng/mL, respectively. For the same compound, the Kp at 2 h in data set [3] stood at 0.

In the case of `O=C(O)c1ccc(-c2c(/C=C/c3ccc4ccccc4n3)nc3c(N4CCOCC4)ccnn23)cc1F` [compound 103, (E)-2-Fluoro-4-(8-morpholino-2-(2-(quinolin-2-yl)vinyl)imidazo[1,2-b]pyridazin-3-yl)benzoic acid], the half-inhibitory concentration (IC50) in data set [1] and in data set [2] was 3 nM in each case. Also, the concentration at 2 h in data set [3] (brain) came to 0 ng/g; in data set [3] (plasma), 199 ng/mL. For the same compound, the concentration ratio (Kp) at 2 h in data set [3] came to 0.

For the compound `O=C(O)c1ccc(-c2c([C@H]3C[C@H](c4ccc5ccccc5n4)C3)nc3c(N4CCOCC4)ccnn23)cc1` [compound 164, 4-(8-Morpholino-2-((1r,3r)-3-(quinolin-2-yl)cyclobutyl)imidazo[1,2-b]pyridazin-3-yl)benzoic acid trifluoroacetic acid salt], the IC50 in data set [2] was < 1 nM. Also, the concentration at 2 h in data set [3] (brain) is 0 ng/g; in data set [3] (plasma) it was 162 ng/mL. The partition ratio (Kp) at 2 h in data set [3] stood at 0.

Regarding `O=C(O)C(F)(F)F.O=C(O)CN1CCC(c2c(C#Cc3ccc4ccccc4n3)nc3c(N4CCOCC4)ccnn23)CC1` [Cpd 25, 2-(4-(8-Morpholino-2-(quinolin-2-ylethynyl)imidazo[1,2-b]pyridazin-3-yl)piperidin-1-yl)acetic acid trifluoroacetic acid salt], in data set [3] (setting [4]), the “Brain conc 2 h” value was determined as 0 ng/g and the “Ratio Br/Pl Mean 2 h” value was 0. Further, the “Plasma conc 2 h” value in data set [3] (male Sprague Dawley rats, 2 h, perfused or non-perfused brain study) stood at 5.77 ng/mL.

Take `C(=C\c1nc2c(N3CCOCC3)ccnn2c1-c1ccc(Sc2nnc[nH]2)nc1)/c1ccc2ccccc2n1` [Cpd 22, (E)-2-(2-(3-(6-(4H-1,2,4-Triazol-3-ylthio)pyridin-3-yl)-8-morpholinoimidazo[1,2-b]pyridazin-2-yl)vinyl)quinoline]: the concentration at 2 h in data set [3] (brain) was determined as 117 ng/g; in data set [3] (plasma), 788 ng/mL. Also, in data set [3], the Kp at 2 h turned out to be 0.17.

On to `Oc1nc(-c2ccc(-c3c(C#Cc4ccc5ccccc5n4)nc4c(N5CCOCC5)ccnn34)cn2)no1` [Cpd 26, 3-(5-(8-Morpholino-2-(quinolin-2-ylethynyl)imidazo[1,2-b]pyridazin-3-yl)pyridin-2-yl)-1,2,4-oxadiazol-5-ol], for which the results for the concentration at 2 h in data set [3] (brain) and in data set [3] (plasma) were 37.8 ng/g and 150 ng/mL, respectively. Besides, the Kp at 2 h in data set [3] came to 0.26.

For the compound `CC(C)[C@H](NC(=O)c1ccc(-c2c(/C=C/c3ccc4ccccc4n3)nc3c(N4CCOCC4)ccnn23)cc1)C(=O)O` [Cpd 73, (S,E)-3-Methyl-2-(4-(8-morpholino-2-(2-(quinolin-2-yl)vinyl)imidazo[1,2-b]pyridazin-3-yl)benzamido)butanoic acid trifluoroacetic acid salt], the 50% inhibitory concentration (IC50) in data set [1] stood at 7 nM; in data set [2] it was 8 nM.

For the compound `O=C(O)c1ccc(-c2c(/C=C/c3ccc4ccccc4n3)nc3c(N4CCOCC4)ccnn23)s1` [Cpd 57, (E)-5-(8-Morpholino-2-(2-(quinolin-2-yl)vinyl)imidazo[1,2-b]pyridazin-3-yl)thiophene-2-carboxylic acid], the IC50 in data set [1] and in data set [2] was 1 nM each time.

As for `CC(=O)NS(=O)(=O)c1ccc(-c2c(/C=C/c3ccc4ccccc4n3)nc3c(N4CCOCC4)ccnn23)cc1` [compound 36, (E)-N-((4-(8-Morpholino-2-(2-(quinolin-2-yl)vinyl)imidazo[1,2-b]pyridazin-3-yl)phenyl)sulfonyl)acetamide], the IC50 in data set [1] and in data set [2] was 2 nM each time.

For `O=c1[nH]c(-c2ccc(-c3c(CCc4ccc5ccccc5n4)nc4c(N5CCOCC5)ccnn34)cn2)no1` [Cpd 37, 3-(5-(8-Morpholino-2-(2-(quinolin-2-yl)ethyl)imidazo[1,2-b]pyridazin-3-yl)pyridin-2-yl)-1,2,4-oxadiazol-5(4H)-one], the IC50 in data set [1] was < 1 nM; in data set [2], 1 nM.

As to `C(=C\c1nc2c(N3CCOCC3)ccnn2c1-c1ccc(-c2nnn[nH]2)nc1)/c1ccc2ccccc2n1` [Cpd 19, 2-[(E)-2-{8-Morpholin-4-yl-3-[6-(1H-tetrazol-5-yl)pyridin-3-yl]imidazo[1,2-b]pyridazin-2-yl}ethenyl]quinoline], the half-inhibitory concentration (IC50) in data set [1] was determined as 3 nM; in data set [2], 2 nM.

Regarding `O=C(O)CN1CCC(c2c(/C=C/c3ccc4ccccc4n3)nc3c(N4CCOCC4)ccnn23)CC1` [Cpd 29, (E)-2-(4-(8-Morpholino-2-(2-(quinolin-2-yl)vinyl)imidazo[1,2-b]pyridazin-3-yl)piperidin-1-yl)acetic acid trifluoroacetic acid salt], the IC50 worked out at 49 nM in data set [1] and 39 nM in data set [2].

`Oc1ccc(-c2c(/C=C/c3ccc4ccccc4n3)nc3c(N4CCOCC4)ccnn23)cn1` [Cpd 16, (E)-5-(8-Morpholino-2-(2-(quinolin-2-yl)vinyl)imidazo[1,2-b]pyridazin-3-yl)pyridin-2-ol]: the concentration for half-maximal inhibition (IC50) in data set [1] and in data set [2] was 6 nM in each case.

With `OC(c1ccc(-c2c(CCc3ccc4ccccc4n3)nc3c(N4CCOCC4)ccnn23)cc1)(C(F)(F)F)C(F)(F)F` [compound 53, 1,1,1,3,3,3-Hexafluoro-2-(4-(8-morpholino-2-(2-(quinolin-2-yl)ethyl)imidazo[1,2-b]pyridazin-3-yl)phenyl)propan-2-ol], the concentration for half-maximal inhibition (IC50) stood at 33 nM in data set [1] and 41 nM in data set [2].

What is called IC50 is the concentration needed to halve the response being measured. As a reminder, the Kp is tissue or fluid exposure divided by exposure in the circulation.

For the origin of these results see patent publication US9193736B2, “PDE 10a inhibitors for the treatment of type II diabetes” (Janssen Pharmaceutica, NV, priority 2013, dated 2015).
